Measured values reported in patent US20130017197A1, “STABILIZED ANTIBODY PREPARATIONS AND USES THEREOF” (UNIVERSITE DE GENEVE, priority 2010, published 2013).

Experiments:
Format in all cases: physicochemical
bevacizumab = assay: Stability of dialysed, pre-stressed bevacizumab alone and with AMP: percentage of monomers by AFFF-MALS; conditions: for percentage of monomers: pH 7.0
Method: A 50 mM phosphate buffer pH 7.0 was used. The buffer choice was based on a pH range and buffer capacity that is tolerated physiologically and that is acceptable for the stability of antibodies. […] Samples were analyzed directly after preparation (t0) and after 7, 14 and 28 days. The aggregation state of the antibodies was measured by multi-angle light scattering (MALS) after separation by asymmetrical flow field-flow fractionation (AFFF). […] Data were collected and analyzed with Astra software (Wyatt Technology Europe GmbH, Dernbach, Germany). The aggregation state was expressed as the percentage of monomers versus time.

Avastin® (bevacizumab) [1] = assay: Effect of AMP on the unmodified commercial bevacizumab formulation (Avastin®): monomers by AFFF-MALS; conditions: 40° C.; for stabilization of the antibody (increase in the amount of monomers) versus Avastin® alone: p<0.05
Method: All samples were stored at a temperature of 40° C. during 28 days. Samples were analyzed directly after preparation (t0) and after 7, 14 and 28 days. The aggregation state of the antibodies was measured by multi-angle light scattering (MALS) after separation by asymmetrical flow field-flow fractionation (AFFF). […] Data were collected and analyzed with Astra software (Wyatt Technology Europe GmbH, Dernbach, Germany). The aggregation state was expressed as the percentage of monomers versus time.
All samples are stored at a temperature of 40° C. for 28 days and stability is measured as described in Example 1 and compared to a sample of Avastin® alone stored under the same conditions.

Avastin® (bevacizumab) [2] = assay: Stability of pre-stressed Avastin® dialysed into PBS pH 7.0, with ATP or GMP: monomers by AFFF-MALS; conditions: for stabilization of Avastin® across molar ratios: ratios 1:1, 1:10, 1:100, 40° C.
Method: All samples were stored at a temperature of 40° C. during 28 days. […] The aggregation state of the antibodies was measured by multi-angle light scattering (MALS) after separation by asymmetrical flow field-flow fractionation (AFFF). […] Data were collected and analyzed with Astra software (Wyatt Technology Europe GmbH, Dernbach, Germany). The aggregation state was expressed as the percentage of monomers versus time.
After pre-stressing, Avastin® samples are combined with either ATP or GMP at three Avastin®: compound of formula (I) molar ratios (1:1, 1:10 and 1:100). All samples are stored at a temperature of 40° C. for 28 days and stability is measured as described in Example 1 and compared to a sample of Avastin® alone stored under the same conditions. For GMP, a dilution of GMP was made in PBS pH 7.0 and pH was re-adjusted to pH 7.0 before the combination with Avastin® to prevent the risk of higher order aggregates caused by the addition of NaOH directly to the antibody formulation.

[3] = molar ratio 1:1, 1 day at 40° C. (t1)
[4] = molar ratio 1:10, 1 day at 40° C. (t1)
[5] = molar ratio 1:100, 1 day at 40° C. (t1)

| SMILES | increase in the proportion of the antibody present in the monomer form (bevacizumab; AMP added to a liquid formulation containing already formed antibody aggregates, general statement) | percentage of monomers (bevacizumab; bevacizumab 25 mg/ml with AMP (read as molar ratio 1:153), 14 days at 40° C., n=3) | percentage of monomers (bevacizumab; bevacizumab:AMP molar ratio 1:1.53, 14 days at 40° C.) | percentage of monomers (bevacizumab; bevacizumab:AMP molar ratio 1:1.53, 28 days at 40° C., n=3) | percentage of monomers (bevacizumab; bevacizumab:AMP molar ratio 1:15.3, 14 days at 40° C.) | percentage of monomers (bevacizumab; bevacizumab:AMP molar ratio 1:15.3, 28 days at 40° C., n=3) | percentage of monomers (bevacizumab; bevacizumab:AMP molar ratio 1:153, 28 days at 40° C., n=3) | stabilization compared to the other molar ratios (Avastin® (bevacizumab) [1]; Avastin®:AMP 1:10 versus 1:1 and 1:100) | stabilization of the antibody (increase in the amount of monomers) versus Avastin® alone (Avastin® (bevacizumab) [1]; Avastin®:AMP molar ratio 1:10, t1, t14 and t28) | stabilization of the antibody (increase in the amount of monomers) versus Avastin® alone (Avastin® (bevacizumab) [1]; Avastin®:AMP molar ratio 1:100, only t14 and t28) | effect on antibody stability versus Avastin® alone (Avastin® (bevacizumab) [2]; [3]) | effect on antibody stability versus Avastin® alone (Avastin® (bevacizumab) [2]; molar ratio 1:1, 28 days at 40° C. (t28)) | effect on antibody stability versus Avastin® alone (Avastin® (bevacizumab) [2]; [4]) | effect on antibody stability versus Avastin® alone (Avastin® (bevacizumab) [2]; molar ratio 1:10, 28 days at 40° C. (t28)) | effect on antibody stability versus Avastin® alone (Avastin® (bevacizumab) [2]; [5]) | effect on antibody stability versus Avastin® alone (Avastin® (bevacizumab) [2]; molar ratio 1:100, 28 days at 40° C. (t28)) | higher order aggregates (Avastin® (bevacizumab) [2]; molar ratio 1:100, 28 days at 40° C., probably due to pH adjustment) | stabilization of Avastin® across molar ratios (Avastin® (bevacizumab) [2]; up to 14 days) | stabilizing properties in comparison of excipients (Avastin® (bevacizumab) [2]; after 28 days of storage at 40° C., ratio not specified) | stabilization of Avastin® across molar ratios (Avastin® (bevacizumab) [2]; all timepoints (1:100 most effective, then 1:10, then 1:1)) |
| --- | --- | --- | --- | --- | --- | --- | --- | --- | --- | --- | --- | --- | --- | --- | --- | --- | --- | --- | --- | --- |
| Nc1ncnc2c1ncn2[C@@H]1O[C@H](COP(=O)(O)O)[C@@H](O)[C@H]1O [AMP, adenosine 5′-monophosphate] | 10% to 30 | higher than 94% | higher than 80% | higher than 76% | higher than 80% | higher than 76% | around 90% | better stabilization | significant stabilization | significant stabilization | – | – | – | – | – | – | – | – | – | – |
| Nc1ncnc2c1ncn2[C@@H]1O[C@H](COP(=O)(O)OP(=O)(O)OP(=O)(O)O)[C@@H](O)[C@H]1O [ATP, adenosine 5′-triphosphate] | – | – | – | – | – | – | – | – | – | – | stabilizing effect | no significant difference | stabilizing effect | no significant difference | stabilizing effect | significant stabilization | small percentage of higher order aggregates | concentration dependent stabilization | – | – |
| Nc1nc2c(ncn2[C@@H]2O[C@H](COP(=O)(O)O)[C@@H](O)[C@H]2O)c(=O)[nH]1 [GMP, guanosine 5′-monophosphate] | – | – | – | – | – | – | – | – | – | – | destabilizing | – | destabilizing | – | ability to stabilize the antibody | – | – | – | most distinct stabilizing properties | concentration dependent stabilization |
